Assay results published in ChEMBL document CHEMBL1153128, “Synthesis of a hydrolytically stable, fluorescent-labeled ATP analog as a tool for probing adenylyl cyclases” (Bioorg Med Chem Lett, 2010).

Target: T1, Calmodulin-sensitive adenylate cyclase (Bacillus anthracis, UniProt P40136)
T1 sequence (P40136 whole entry): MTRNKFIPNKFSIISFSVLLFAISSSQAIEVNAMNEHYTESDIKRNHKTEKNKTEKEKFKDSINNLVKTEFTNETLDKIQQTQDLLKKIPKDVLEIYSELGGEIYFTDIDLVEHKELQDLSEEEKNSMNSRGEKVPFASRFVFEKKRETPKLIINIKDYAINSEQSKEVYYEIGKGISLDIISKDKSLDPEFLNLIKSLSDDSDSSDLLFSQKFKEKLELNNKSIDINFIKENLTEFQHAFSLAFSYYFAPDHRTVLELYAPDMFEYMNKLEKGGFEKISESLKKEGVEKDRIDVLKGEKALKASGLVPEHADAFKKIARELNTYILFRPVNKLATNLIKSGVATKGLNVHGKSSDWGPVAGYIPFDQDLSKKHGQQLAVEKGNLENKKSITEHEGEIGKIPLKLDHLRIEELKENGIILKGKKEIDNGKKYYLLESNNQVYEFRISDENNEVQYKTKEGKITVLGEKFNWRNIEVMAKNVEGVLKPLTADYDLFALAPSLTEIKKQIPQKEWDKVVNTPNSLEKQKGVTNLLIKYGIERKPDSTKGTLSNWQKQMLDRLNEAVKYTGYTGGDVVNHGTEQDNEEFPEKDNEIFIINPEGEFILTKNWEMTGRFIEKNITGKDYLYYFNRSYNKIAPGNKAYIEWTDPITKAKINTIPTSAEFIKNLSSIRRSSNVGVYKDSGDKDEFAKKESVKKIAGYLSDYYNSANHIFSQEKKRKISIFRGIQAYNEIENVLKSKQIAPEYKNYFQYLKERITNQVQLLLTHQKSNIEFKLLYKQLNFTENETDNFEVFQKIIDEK
Assay: Inhibition of Bacillus anthracis edema factor catalytic domain by radiometric assay

| Structure (SMILES) | Ki [nM] |
| --- | --- |
| CNc1ccccc1C(=O)O[C@@H]1[C@H](O)[C@@H](COP(=O)(O)OP(=O)(O)OP(=O)(O)O)O[C@H]1n1ccc(N)nc1=O | 100 |
| CNc1ccccc1C(=O)O[C@H]1[C@@H](O)[C@H](n2cnc3c(N)ncnc32)O[C@@H]1CO[P@@](=O)(O)O[P@](=O)(O)OP(=O)(O)O | 980 |
| CNc1ccccc1C(=O)N[C@@H]1[C@H](O)[C@@H](COP(=O)(O)OP(=O)(O)C(Cl)(Cl)P(=O)(O)O)O[C@H]1n1cnc2c(N)ncnc21 | 8980 |
